Active and inactive are the calls of the source. The calls are words filed in the database; no cut-off is given here.
Assays:
OVCAR-3 = experiment: Cytotoxicity against human OVCAR-3 cells assessed as inhibition of cell growth incubated for 72 hrs by CellTiter-Blue cell viability assay; format: functional, cell-based; details: OVCAR-3, 72 h
[1] = molecular target: Forkhead box protein O3 (Homo sapiens) (UniProt O43524); experiment: Activation of FOXO3a in human OVACAR-3 cells assessed as decrease in cytosolic localization of FOXO3a at 1 uM incubated for 3 hrs by DAPI staining based immunofluorescence assay; format: cell-based; details: OVCAR-3, filed as activator
[2] = molecular target: Forkhead box protein O3 (Homo sapiens) (UniProt O43524); experiment: Transactivation of FOXO3a in human OVACAR-3 cells assessed as decrease in cytosolic concentration of FOXO3a at 1 uM for 3 hrs by western blot analysis; format: cell-based; details: OVCAR-3, filed as activator
[3] = molecular target: Forkhead box protein O3 (Homo sapiens) (UniProt O43524); experiment: Activation of FOXO3a in human OVACAR-3 cells assessed as increase in nuclear accumulation of FOXO3a at 1 uM incubated for 3 hrs by DAPI staining based immunofluorescence assay; format: cell-based; details: OVCAR-3, filed as activator
[4] = molecular target: Forkhead box protein O3 (Homo sapiens) (UniProt O43524); experiment: Transactivation of FOXO3a in human OVACAR-3 cells assessed as increase in nuclear accumulation of FOXO3a at 1 uM incubated for 24 hrs by western blot analysis; format: cell-based; details: OVCAR-3, filed as activator
[5] = molecular target: Forkhead box protein O3 (Homo sapiens) (UniProt O43524); experiment: Activation of FOXO3a in human OVACAR-3 cells assessed as cytosolic localization of FOXO3a at 2 uM incubated for 3 hrs by DAPI staining based immunofluorescence assay; format: cell-based; details: OVCAR-3, filed as activator
[6] = molecular target: Forkhead box protein O3 (Homo sapiens) (UniProt O43524); experiment: Activation of FOXO3a in human OVACAR-3 cells assessed as nuclear accumulation of FOXO3a at 2 uM incubated for 3 hrs by DAPI staining based immunofluorescence assay; format: cell-based; details: OVCAR-3, filed as activator
[7] = molecular target: Forkhead box protein O3 (Homo sapiens) (UniProt O43524); experiment: Transactivation of FOXO3a in human OVACAR-3 cells assessed as nuclear accumulation of FOXO3a at 2 uM incubated for 3 hrs by western blot analysis; format: cell-based; details: OVCAR-3, filed as activator

Sequence of Forkhead box protein O3 (Homo sapiens) (O43524 whole entry): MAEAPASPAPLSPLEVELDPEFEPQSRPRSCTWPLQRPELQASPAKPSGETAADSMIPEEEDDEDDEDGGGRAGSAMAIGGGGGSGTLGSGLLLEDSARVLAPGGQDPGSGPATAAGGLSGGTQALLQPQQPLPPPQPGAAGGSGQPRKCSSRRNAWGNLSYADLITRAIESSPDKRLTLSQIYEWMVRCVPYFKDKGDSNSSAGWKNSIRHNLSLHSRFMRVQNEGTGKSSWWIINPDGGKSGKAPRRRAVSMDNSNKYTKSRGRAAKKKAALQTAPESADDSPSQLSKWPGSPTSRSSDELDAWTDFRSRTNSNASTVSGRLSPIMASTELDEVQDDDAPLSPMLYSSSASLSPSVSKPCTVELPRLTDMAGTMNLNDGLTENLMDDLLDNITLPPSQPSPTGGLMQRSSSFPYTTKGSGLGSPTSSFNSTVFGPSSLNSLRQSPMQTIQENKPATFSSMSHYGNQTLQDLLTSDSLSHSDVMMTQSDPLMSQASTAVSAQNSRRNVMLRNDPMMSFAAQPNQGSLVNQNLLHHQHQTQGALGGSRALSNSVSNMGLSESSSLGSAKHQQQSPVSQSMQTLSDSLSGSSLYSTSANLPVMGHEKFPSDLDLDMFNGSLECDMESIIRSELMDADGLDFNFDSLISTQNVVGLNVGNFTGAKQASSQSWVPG

In the case of `COc1nsc2c1C(=O)c1c(O)ccc(C(=O)O)c1C2=O`, the IC50 (OVCAR-3) is reported as 3030 nM.
`COc1nsc2c1C(=O)c1ccccc1C2=O` was tested, and the IC50 (OVCAR-3) was 600 nM.
With `COc1nsc2c1C(=O)c1c(O)cccc1C2=O` the Activity [1] was “Active”, the Activity [2] was “Active” and the IC50 (OVCAR-3) was 301 nM. The Activity [3] was “Active” and the Activity [4] was “Active”.
`O=c1cc(N2CCOCC2)oc2c(-c3ccccc3)cccc12` [LY-294002] was tested, and the IC50 (OVCAR-3) was 9190 nM, the Activity [5] was “Active” and the Activity [6] was “Active”. For the same compound, the Activity [7] was “Active”.

From ChEMBL document CHEMBL5143579, “Aulosirazoles B and C from the Cyanobacterium Nostoc sp. UIC 10771: Analogues of an Isothiazolonaphthoquinone Scaffold that Activate Nuclear Transcription Factor FOXO3a in Ovarian Cancer Cells” (J Nat Prod, 2022)
